Data published in PMC8512562, “Semisynthetic Derivatives of Selected Amaryllidaceae Alkaloids as a New Class of Antimycobacterial Agents” (Molecules, 2021).
In brackets after ≈: the same amount, converted by molar mass. Read-outs that look alike come from different tables or passages of the source.

Key:
[1] = test system: Mycobacterium tuberculosis H37Ra; assay: Antimycobacterial screening (microdilution broth, resazurin) against M. tuberculosis H37Ra; format: cell-based; conditions: for MIC: Mycobacterium tuberculosis
[2] = test system: Mycobacterium smegmatis DSM 43465 (ATCC 607); assay: Antimycobacterial screening (microdilution broth, resazurin) against M. smegmatis; format: cell-based; conditions: for MIC: Mycolicibacterium smegmatis, read-out: MIC M. smegmatis
[3] = test system: Mycobacterium aurum DSM 43999 (ATCC 23366); assay: Antimycobacterial screening (microdilution broth, resazurin) against M. aurum; format: cell-based; conditions: for MIC: Mycolicibacterium aurum, read-out: MIC M. aurum
[4] = test system: M. tuberculosis H37Ra, M. aurum and M. smegmatis; assay: Antimycobacterial screening, MICs stated over all studied strains; format: cell-based, Mycobacterium; conditions: range over M. tuberculosis H37Ra, M. aurum, M. smegmatis; read-out: MICs against all studied strains
[5] = test system: HepG2 cells; assay: cells; format: cell-based, Human; conditions: for IC50: Homo sapiens, HepG2, MTT, 24 h incubation
[6] = H37RA, read-out: MIC Mtb H37Ra (µM)
[7] = M. tuberculosis H37Ra, resazurin added after 120 h, read-out: MIC Mtb H37Ra
[8] = range of MIC of the standards in the assay

SMILES	MIC [1, 6] [µM]	MIC [1, 7] [µg/mL]	MIC ([2]; resazurin added after 48 h) [µg/mL]	MIC ([3]; 72 h) [µg/mL]	MIC ([2]; 48 h) [µg/mL]	MIC [4] [µg/mL]	SI (selectivity index) [5]	IC50 [5] [µM]	MIC values for standards, range, M. tuberculosis [1, 8] [µg/mL]	MIC values for standards, range, M. smegmatis [2, 8] [µg/mL]	MIC ([3]; resazurin added after 72 h) [µg/mL]	MIC values for standards, range, M. aurum [3, 8] [µg/mL]	MIC ([1]; H37RA, 120 h, read-out: MIC Mtb H37Ra) [µg/mL]
COc1ccc2c3c1O[C@H]1C[C@@H](OC(=O)c4ccccc4)C=C[C@@]31CCN(C)C2 [1a, 6-O-benzoylgalanthamine]	79.8	31.2	≥ 500	31.2 (≈ 79.8 µM)									
CO[C@H]1C=C2[C@H]3C[N@@](Cc4cc5c(cc43)OCO5)[C@H]2C[C@@H]1O [montanine (8), montanine]	≥ 1660	≥ 500		≥ 500	≥ 500								
O[C@@H]1C=C[C@]23CCN(Cc4cc5c(cc42)OCO5)[C@H]3C1 [vittatine (4), vittatine]	≥ 1840	≥ 500		250 (≈ 921 µM)	≥ 500								
O=C(O[C@@H]1C=C[C@]23CCN(Cc4cc5c(cc42)OCO5)[C@H]3C1)c1ccc2ccccc2c1 [4b, 3-O-(2-naphthoyl)vittatine]	8.5	3.91		3.91 (≈ 9.19 µM)	7.81 (≈ 18.4 µM)	3.91 to 7.81 (≈ 9.19 to 18.4 µM)	2.17	18.5 ± 2					
COC1CC2C(=CC1OC(=O)c1cc(C)cc(C)c1)C1CN2Cc2cc3c(cc21)OCO3 (stereo not drawn) [3a, 2-O-(3,5-dimethylbenzoyl)-3-O-methylpancracine]	16.6	7.81		7.81 (≈ 18 µM)	15.6 (≈ 36 µM)		2.45	40.6 ± 7.6					
COc1cc2c(cc1OC)[C@@H]1[C@H](O)[C@@H](OC)C=C3CCN(C2)[C@H]31 [galanthine (6), galanthine]	788	250		250 (≈ 788 µM)	≥ 500								
COc1cc(C(=O)O[C@H]2C=C[C@@]34CCN(C)Cc5ccc(OC)c(c53)O[C@H]4C2)cc(OC)c1OC [1o, 6-O-(3,4,5-trimethoxybenzoyl)galanthamine]	121	62.5		125 (≈ 260 µM)	250 (≈ 519 µM)								
O=C(O)c1cn(C2CC2)c2cc(N3CCNCC3)c(F)cc2c1=O [ciprofloxacin, reference compound]	0.75	0.25	0.125 (≈ 0.377 µM)						0.125 to 0.25	0.0625 to 0.125	0.0156 (≈ 0.0472 µM)	0.0078 to 0.0156	
CCOc1cc(OCC)cc(C(=O)OC2C=C3C4CN(Cc5cc6c(cc54)OCO6)C3CC2OC)c1 (stereo not drawn) [3e, 2-O-(3,5-diethoxybenzoyl)-3-O-methylpancracine]	7.8			7.81 (≈ 15.8 µM)	15.6 (≈ 31.7 µM)			24.9 ± 1.7					3.91
COc1ccc2c3c1O[C@H]1C[C@@H](OC(=O)c4ccc5ccccc5c4)C=C[C@@]31CCN(C)C2 [1r, 6-O-(2-naphthoyl)galanthamine]	4.1	1.98		3.91 (≈ 8.86 µM)	7.81 (≈ 17.7 µM)	1.98 to 7.81 (≈ 4.48 to 17.7 µM)	5.17	21.2 ± 3.8					
O[C@H]1[C@H]2c3cc4c(cc3CN3CCC(=C[C@@H]1O)[C@H]23)OCO4 [lycorine (7), lycorine]	≥ 1740	≥ 500		≥ 500	≥ 500								
COc1ccc2c3c1O[C@H]1C[C@@H](OC(=O)c4cccc(C)c4C)C=C[C@@]31CCN(C)C2 [1e, 6-O-(2,3-dimethylbenzoyl)galanthamine]	17.1	7.81		15.6 (≈ 37.2 µM)	31.2 (≈ 74.5 µM)		1.05	17.9 ± 2.6					
COc1ccc2c3c1O[C@H]1C[C@@H](OC(=O)c4ccc(C)cc4)C=C[C@@]31CCN(C)C2 [1d, 6-O-(4-methylbenzoyl)galanthamine]	35.4	15.6		15.6 (≈ 38.5 µM)	31.2 (≈ 77.1 µM)								
COc1ccc(C(=O)O[C@H]2C=C[C@@]34CCN(C)Cc5ccc(OC)c(c53)O[C@H]4C2)cc1OC [1m, 6-O-(3,4-dimethoxybenzoyl)galanthamine]	128	62.5		125 (≈ 277 µM)	250 (≈ 554 µM)								
COc1ccc(C(=O)O[C@H]2C=C[C@@]34CCN(C)Cc5ccc(OC)c(c53)O[C@H]4C2)cc1 [1l, 6-O-(4-methoxybenzoyl)galanthamine]	68.3	31.2		31.2 (≈ 74.1 µM)	62.5 (≈ 148 µM)								
COC1CC2C(=CC1OC(=O)c1ccc(C(C)(C)C)cc1)C1CN2Cc2cc3c(cc21)OCO3 (stereo not drawn) [3c, 2-O-(4-tert-butylbenzoyl)-3-O-methylpancracine]	7.9	3.91		7.81 (≈ 16.9 µM)	7.81 (≈ 16.9 µM)		3.08	24.3 ± 2.4					
COc1ccc2c3c1O[C@H]1C[C@@H](O)C=C[C@@]31CCN(C)C2 [galanthamine (1), galanthamine, reference compound]	≥ 1740	≥ 500		≥ 500	≥ 500								
